Patent US11370798B2 (Vertex Pharmaceuticals Incorporated, priority 2012, dated 2022)

test system: HCT116 colorectal cancer cells; experiment: Cisplatin sensitization assay (96 h cell viability MTS); assay type: cell-based; details: compound and Cisplatin added simultaneously, Cisplatin sensitization value;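 note: Test-compound concentration that lowers the Cisplatin IC50 by a set fold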
How it was run: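 Viability read by MTS (1 h at 37° C) after 96 h co-exposure at 37° C, 5% CO2. Test compound and cisplatin were dosed simultaneously in a full concentration matrix, each 2-fold serially diluted from 10 μM final; sensitization values binned in μM.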

| Compound | Cisplatin Sensitization Assay |
| --- | --- |
| Nc1nn2cc(Cl)cnc2c1C(=O)Nc1cnccc1Oc1cccnc1 [I-O-70, 2-amino-6-chloro-N-(4-(pyridin-3-yloxy)pyridin-3-yl)pyrazolo[1,5-a]pyrimidine-3-carboxamide] | +++ (Cisplatin sensitization value of <0.02 μM) |
| Nc1nn2cc(F)cnc2c1C(=O)Nc1cnccc1N1CCN(C2CCOC2)CC1 (racemic) [I-N-19, (R,S)-2-amino-6-fluoro-N-(4-(4-(tetrahydrofuran-3-yl)piperazin-1-yl)pyridin-3-yl)pyrazolo[1,5-a]pyrimidine-3-carboxamide] | +++ (Cisplatin sensitization value of <0.02 μM) |
| Nc1nn2cc(F)cnc2c1C(=O)Nc1cncc(F)c1N1CCN(C(=O)C2CC2)CC1 [I-N-276, 2-amino-N-(4-(4-(cyclopropanecarbonyl)piperazin-1-yl)-5-fluoropyridin-3-yl)-6-fluoropyrazolo[1,5-a]pyrimidine-3-carboxamide] | +++ (Cisplatin sensitization value of <0.02 μM) |
| COC(=O)N1CCN(c2c(F)cncc2NC(=O)c2c(N)nn3cc(F)cnc23)CC1 [I-N-261, methyl-4-(3-(2-amino-6-fluoropyrazolo[1,5-a]pyrimidine-3-carboxamido)-5-fluoropyridin-4-yl)piperazine-1-carboxylate] | +++ (Cisplatin sensitization value of <0.02 μM) |
| Nc1nn2cc(F)cnc2c1C(=O)Nc1cnccc1N1CCN([C@@H]2CCOC2)CC1 [I-N-10, (R)-2-amino-6-fluoro-N-(4-(4-(tetrahydrofuran-3-yl)piperazin-1-yl)pyridin-3-yl)pyrazolo[1,5-a]pyrimidine-3-carboxamide] | ++ (Cisplatin sensitization value>0.02 μM but <0.2 μM) |
| Nc1nn2cc(Cl)cnc2c1C(=O)Nc1cnccc1OC1CCCOC1 (stereo not drawn) [I-O-65, 2-amino-6-chloro-N-(4-((tetrahydro-2H-pyran-3-yl)oxy)pyridin-3-yl)pyrazolo[1,5-a]pyrimidine-3-carboxamide] | +++ (Cisplatin sensitization value of <0.02 μM) |
| Cc1ncn(-c2ccncc2NC(=O)c2c(N)nn3cc(F)cnc23)c1C [I-N-269, 2-amino-N-(4-(4,5-dimethyl-1H-imidazol-1-yl)pyridin-3-yl)-6-fluoropyrazolo[1,5-a]pyrimidine-3-carboxamide] | ++ (Cisplatin sensitization value>0.02 μM but <0.2 μM) |
| Nc1nn2cc(Cl)cnc2c1C(=O)Nc1cnccc1N1CCN(CC(F)(F)F)CC1 [I-N-67, 2-amino-6-chloro-N-(4-(4-(2,2,2-trifluoroethyl)piperazin-1-yl)pyridin-3-yl)pyrazolo[1,5-a]pyrimidine-3-carboxamide] | +++ (Cisplatin sensitization value of <0.02 μM) |
| CN1CCN(C(=O)c2ccc(-c3c(F)cncc3NC(=O)c3c(N)nn4cc(F)cnc34)cc2)CC1 [I-C-43, 2-amino-6-fluoro-N-(5-fluoro-4-(4-(4-methylpiperazine-1-carbonyl)phenyl)pyridin-3-yl)pyrazolo[1,5-a]pyrimidine-3-carboxamide] | +++ (Cisplatin sensitization value of <0.02 μM) |
| CN(C)CCOc1ccncc1NC(=O)c1c(N)nn2cc(Cl)cnc12 [I-O-48, 2-amino-6-chloro-N-(4-(2-(dimethylamino)ethoxy)pyridin-3-yl)pyrazolo[1,5-a]pyrimidine-3-carboxamide] | ++ (Cisplatin sensitization value>0.02 μM but <0.2 μM) |
| Nc1nn2cc(F)cnc2c1C(=O)Nc1cnccc1OC1COC1 [I-O-92, 2-amino-6-fluoro-N-(4-(oxetan-3-yloxy)pyridin-3-yl)pyrazolo[1,5-a]pyrimidine-3-carboxamide] | +++ (Cisplatin sensitization value of <0.02 μM) |
| CN1CCC(C(=O)N2CCN(c3c(F)cncc3NC(=O)c3c(N)nn4cc(F)cnc34)CC2)CC1 [I-N-128, 2-amino-6-fluoro-N-(5-fluoro-4-(4-(1-methylpiperidine-4-carbonyl)piperazin-1-yl)pyridin-3-yl)pyrazolo[1,5-a]pyrimidine-3-carboxamide] | +++ (Cisplatin sensitization value of <0.02 μM) |
| Nc1nn2cc(F)cnc2c1C(=O)Nc1cnccc1N1CCC(C(=O)N2CC3(COC3)C2)CC1 [I-G-88, N-(4-(4-(2-oxa-6-azaspiro[3.3]heptane-6-carbonyl)piperidin-1-yl)pyridin-3-yl)-2-amino-6-fluoropyrazolo[1,5-a]pyrimidine-3-carboxamide] | +++ (Cisplatin sensitization value of <0.02 μM) |
| Nc1nn2cc(F)cnc2c1C(=O)Nc1cnccc1C1CCOC1 (stereo not drawn) [I-C-75, 2-amino-6-fluoro-N-(4-(tetrahydrofuran-3-yl)pyridin-3-yl)pyrazolo[1,5-a]pyrimidine-3-carboxamide] | ++ (Cisplatin sensitization value>0.02 μM but <0.2 μM) |
| COCCOc1ccncc1NC(=O)c1c(N)nn2cc(CC#N)cnc12 [I-O-29, 2-amino-6-(cyanomethyl)-N-(4-(2-methoxyethoxy)pyridin-3-yl)pyrazolo[1,5-a]pyrimidine-3-carboxamide] | +++ (Cisplatin sensitization value of <0.02 μM) |
| Nc1nn2cc(F)cnc2c1C(=O)Nc1cnccc1C1CCN(C(=O)C2CC2)CC1 [I-C-70, 2-amino-N-(4-(1-(cyclopropanecarbonyl)piperidin-4-yl)pyridin-3-yl)-6-fluoropyrazolo[1,5-a]pyrimidine-3-carboxamide] | +++ (Cisplatin sensitization value of <0.02 μM) |
| CC(=O)N1CC2(CCN(c3ccncc3NC(=O)c3c(N)nn4cc(F)cnc34)CC2)C1 [I-N-251, N-(4-(2-acetyl-2,7-diazaspiro[3.5]nonan-7-yl)pyridin-3-yl)-2-amino-6-fluoropyrazolo[1,5-a]pyrimidine-3-carboxamide] | +++ (Cisplatin sensitization value of <0.02 μM) |
| CC(=O)N1CCN(c2c(F)cncc2NC(=O)c2c(N)nn3cc(F)cnc23)CC1 [I-N-275, N-(4-(4-acetylpiperazin-1-yl)-5-fluoropyridin-3-yl)-2-amino-6-fluoropyrazolo[1,5-a]pyrimidine-3-carboxamide] | +++ (Cisplatin sensitization value of <0.02 μM) |
| N#CC1(C(=O)N2CCC(c3ccncc3NC(=O)c3c(N)nn4cc(F)cnc34)CC2)CC1 [I-C-71, 2-amino-N-(4-(1-(1-cyanocyclopropanecarbonyl)piperidin-4-yl)pyridin-3-yl)-6-fluoropyrazolo[1,5-a]pyrimidine-3-carboxamide] | +++ (Cisplatin sensitization value of <0.02 μM) |
| Cn1ccnc1-c1ccncc1NC(=O)c1c(N)nn2cc(F)cnc12 [I-C-55, 2-amino-6-fluoro-N-(4-(1-methyl-1H-imidazol-2-yl)pyridin-3-yl)pyrazolo[1,5-a]pyrimidine-3-carboxamide] | + (Cisplatin sensitization value>0.2 μM but <5 μM) |
| N#CCc1cnc2c(C(=O)Nc3cnccc3-c3ccccc3)c(N)nn2c1 [I-C-6, 2-amino-6-(cyanomethyl)-N-(4-phenylpyridin-3-yl)pyrazolo[1,5-a]pyrimidine-3-carboxamide] | +++ (Cisplatin sensitization value of <0.02 μM) |
| Cc1ncc(-c2ccncc2NC(=O)c2c(N)nn3cc(F)cnc23)n1C [I-C-77, 2-amino-N-(4-(1,2-dimethyl-1H-imidazol-5-yl)pyridin-3-yl)-6-fluoropyrazolo[1,5-a]pyrimidine-3-carboxamide] | +++ (Cisplatin sensitization value of <0.02 μM) |
| Nc1nn2cc(F)cnc2c1C(=O)Nc1cnccc1N1CCN(CC(F)(F)F)CC1 [I-N-20, 2-amino-6-fluoro-N-(4-(4-(2,2,2-trifluoroethyl)piperazin-1-yl)pyridin-3-yl)pyrazolo[1,5-a]pyrimidine-3-carboxamide] | +++ (Cisplatin sensitization value of <0.02 μM) |
| Cc1cncc(NC(=O)c2c(N)nn3cc(F)cnc23)c1N1CCC(C(=O)N2CCNCC2)CC1 [I-G-56, 2-amino-6-fluoro-N-(5-methyl-4-(4-(piperazine-1-carbonyl)piperidin-1-yl)pyridin-3-yl)pyrazolo[1,5-a]pyrimidine-3-carboxamide] | +++ (Cisplatin sensitization value of <0.02 μM) |
| Nc1nn2cc(F)cnc2c1C(=O)Nc1cncc(F)c1N1CCC(C(=O)N2CC(F)(F)C2)CC1 [I-G-73, 2-amino-N-(4-(4-(3,3-difluoroazetidine-1-carbonyl)piperidin-1-yl)-5-fluoropyridin-3-yl)-6-fluoropyrazolo[1,5-a]pyrimidine-3-carboxamide] | +++ (Cisplatin sensitization value of <0.02 μM) |
| Nc1nn2cc(Cl)cnc2c1C(=O)Nc1cnccc1O[C@@H]1CCOC1 [I-O-54, (R)-2-amino-6-chloro-N-(4-((tetrahydrofuran-3-yl)oxy)pyridin-3-yl)pyrazolo[1,5-a]pyrimidine-3-carboxamide] | +++ (Cisplatin sensitization value of <0.02 μM) |
| Nc1nn2cc(F)cnc2c1C(=O)Nc1cnccc1N1CCN(S(=O)(=O)C2CCOCC2)CC1 [I-N-177, 2-amino-6-fluoro-N-(4-(4-((tetrahydro-2H-pyran-4-yl)sulfonyl)piperazin-1-yl)pyridin-3-yl)pyrazolo[1,5-a]pyrimidine-3-carboxamide] | +++ (Cisplatin sensitization value of <0.02 μM) |
| CN1CCc2c(cncc2NC(=O)c2c(N)nn3cc(F)cnc23)C1 [I-C-8, 2-amino-6-fluoro-N-(7-methyl-5,6,7,8-tetrahydro-2,7-naphthyridin-4-yl)pyrazolo[1,5-a]pyrimidine-3-carboxamide] | + (Cisplatin sensitization value>0.2 μM but <5 μM) |
| Nc1nn2cc(F)cnc2c1C(=O)Nc1cncc(F)c1N1CCN(S(=O)(=O)C2CCOCC2)CC1 [I-N-158, 2-amino-6-fluoro-N-(5-fluoro-4-(4-((tetrahydro-2H-pyran-4-yl)sulfonyl)piperazin-1-yl)pyridin-3-yl)pyrazolo[1,5-a]pyrimidine-3-carboxamide] | +++ (Cisplatin sensitization value of <0.02 μM) |
| Nc1nn2cc(F)cnc2c1C(=O)Nc1cnccc1-n1ccnc1C1CC1 [I-N-202, 2-amino-N-(4-(2-cyclopropyl-1H-imidazol-1-yl)pyridin-3-yl)-6-fluoropyrazolo[1,5-a]pyrimidine-3-carboxamide] | +++ (Cisplatin sensitization value of <0.02 μM) |
